Experimental data from publication PMC11597446, “Using the Cocrystal Approach as a Promising Drug Delivery System to Enhance the Dissolution and Bioavailability of Formononetin Using an Imidazole Coformer” (Pharmaceuticals, 2024).
Entries after “also recorded” stand apart in the source; their conditions may differ. Like-named read-outs stand apart in the source and are kept apart here.

Key:
[1] = Rat oral pharmacokinetics; type: in vivo, Male Sprague-Dawley rats; conditions: rats, oral 20 mg FMN/kg
Description: The study was carried out in rats at a 20 mg FMN/kg dose. The plasma concentration profiles and the PK parameters are presented in Figure 9 and Table 4, respectively.
The experiments were carried out in accordance with the Guidelines for Animal Experimentation of Nonclinical Center, Chaon Co. Ltd. (Yongin, Republic of Korea) and approved by the Animal Ethics Committee of the institution (CE23665) on 13 February 2024. Male Sprague−Dawley rats (230−300 g, 8 weeks) were obtained from Dae Han Bio Link Co., Ltd. (Eumseong-gun, Republic of Korea). All rats had free access to food and water in a controlled environment for one week. […] After stirring for 5 min at 37 °C, an appropriate volume (about 200 μL) of suspension was delivered via oral gavage at a dosage of 20 mg/kg body weight. Approximately 300 μL blood samples were obtained from tail veins and placed into tubes pretreated with sodium citrate before and after 0.25, 0.5, 1, 2, 4, 8, and 24 h of dosing. Blood samples were immediately centrifuged at 5000 rpm for 10 min. All the plasma samples were stored at −80 °C until analysis. FMN from plasma samples were prepared for analysis by liquid–liquid extraction using methyl tert-butyl ether according to the following steps: 60 µL internal standard (IS) solution (10 ng/mL in 50% methanol) was added to 70 µL plasma sample and […] was placed in a 15 mL tube. The sample solution was vortexed for 10 min followed by centrifugation for 5 min at 4000 rpm. The upper organic layer was transferred to a clean test tube and evaporated on a heating block at 50 °C under nitrogen. The residue was dissolved in the 50% acetonitrile (900 µL, in 0.1% formic acid) and mixed on a vortex mixer for 30 s. Resulting sample solution was transferred to auto-sampler vials, and 5 µL aliquot was injected into the LC/MS/MS system for analysis of FMN by a validated method as described below.
The pharmacokinetic data were analyzed by Winnlene (China Pharmaceutical University, Nanjing, China), using the noncompartmental method to calculate the peak plasma concentration (Cmax), the time to reach Cmax (Tmax), and the area under the plasma concentration−time curve (AUC).
FMN quantitative analysis was carried out using Agilent 1200 system (Agilent, Waldbronn, Germany) with triple quadrupole mass spectrometry API5000 (ABSciex, Vaughan, ON, Canada) operated in negative electrospray ionization using MRM mode. A Luna C8(2) column (2.1 mm I.D., 100 mm length, 5 μm; Phenomenex, Torrance, CA, USA) was maintained at 40 °C. Gradient elution was carried out at a flow rate of 0.3 mL/min using mobile phase A (distilled water) and mobile phase B (acetonitrile). The gradient applied was as follows: from 0 to 2.5 min, 50% B; from 2.6 to 7.0 min, 95% B; and from 7.1 to 11.5 min, 50% B. Sample volumes of 5 μL were injected. The fragmentation transitions were m/z 267.1 → 252.0 for FMN and m/z 197.0 → 92.0 for […], respectively. Optimized instrument settings specific for FMN and IS were as follows: curtain gas, 20 psi; ion source gas 1, 50 psi; ion source gas 2, 50 psi; ion spray voltage, −4500 V; turbo heater temperature, 650 °C. The precursor ions of FMN and IS were formed using declustering potentials of −90 and −40 V, respectively, and their precursor ions were fragmented at collision energies of −28 and −42 eV by collision-activated dissociation with nitrogen at a pressure setting of 5 (arbitrary units). Both quadrupoles were maintained at unit resolution. The ratio of the standard to IS peak area was used for calibration by linear regression analysis.

[2] = Physical stability test (PXRD after storage); type: physicochemical
Description: Powder samples in closed glass vials were stored at 4 and 40 °C. They were then analyzed by PXRD for crystallization at given time points. PXRD measurement conditions were the same as described above.

[3] = Powder dissolution experiment in bio-relevant media (FaSSGF, FaSSIF); conditions: 37 °C
Description: Bio-relevant media, FaSSGF and FaSSIF, were used for powder dissolution tests to mimic in vivo environments.
Powder samples were sieved through a 300 µm sieve. FaSSGF and FaSSIF were prepared according to the literature, except pepsin was not included in FaSSGF [41]. Samples equivalent to 5 mg of FMN were added to 20 mL glass vials containing 10 mL of FaSSGF or FaSSIF. Sample vials were placed in a shaking incubator (SIF-6000R, Jeio Tech, Daejeon, Republic of Korea) at 37 °C. Aliquots (1 mL) were collected at designated time points and filtered through a 0.45 µm PVDF filter and diluted with the HPLC mobile phase for HPLC analysis. Additional test for cocrystal was carried out in the presence of PVP K30 (2.5 mg/mL) in FaSSGF or FaSSIF.
FMN quantitative analysis was carried out using a Shimadzu system (Japan) equipped with a C8 column (5 μm, 4.6 mm I.D., and 150 mm length, Waters, Milford, MA, USA) at room temperature. The mobile phase was composed of methanol/water (60:40, v/v). Samples were injected in a volume of 10 μL with a total flow rate set at 1.0 mL/min. Detection was carried out at a UV wavelength of 254 nm. The area of the standard was used for calibration by linear regression analysis.

[4] = plasma FMN, suspension in 1% PVP-K30, n = 4

AUC(0-inf) ([1]; male, Sprague-Dawley, rat, 20 mg/kg, plasma FMN, crystalline FMN suspension in 1% PVP-K30, n = 4) | AUC(0-t) ([1]; male, Sprague-Dawley, rat, 20 mg/kg, plasma FMN, crystalline FMN suspension in 1% PVP-K30, n = 4, mean ± SD) | Cmax ([1]; male, Sprague-Dawley, rat, 20 mg/kg, plasma FMN, crystalline FMN suspension in 1% PVP-K30, n = 4, read-out: Cmax) | half-life ([1]; male, Sprague-Dawley, rat, 20 mg/kg, plasma FMN, suspension in 1% PVP-K30, n = 4) | Tmax ([1]; male, Sprague-Dawley, rat, 20 mg/kg, plasma FMN, suspension in 1% PVP-K30, n = 4, read-out: Tmax) | physical stability (PXRD) after storage ([2]; six months at 4 and 40 °C, closed glass vials) | AUCinf [1, 4] | Cmax [1, 4] | T1/2 [1, 4] | Tmax [1, 4] | AUCt ([1]; plasma FMN, suspension in 1% PVP-K30, n = 4, mean ± SD) | increase in AUC compared to crystalline FMN [1] | increase in Cmax compared to crystalline FMN [1] | Compound | physical stability (PXRD) after storage ([2]; six months at 40 °C) | dissolution rate and concentration at 6 h compared with crystalline FMN [3]
16.4 ± 1.51 ng·h/mL | 10.4 ± 3.19 ng·h/mL | 1.81 ± 0.73 ng/mL | 7.1 ± 3.35 h | 5 ± 2 h | – | – | – | – | – | – | – | – | COc1ccc(-c2coc3cc(O)ccc3c2=O)cc1 [FMN, Formononetin] | – | –
– | – | – | – | – | remained the same for six months | 44.52 ± 19.11 ng·h/mL | 8.93 ± 6.66 ng/mL | 5.60 ± 2.19 h | 0.44 ± 0.38 h | 37.38 ± 20.97 ng·h/mL | 3.58 fold | 4.93 fold | formononetin-imidazole [FMN-IMD cocrystal] | no changes in the PXRD; also recorded: stable for six months | faster dissolution rate and higher concentration at the 6-h time point
